The source made the active and inactive calls. The rule behind the calls is not given here.
molecular target: Serine/threonine-protein kinase mTOR (Homo sapiens) (UniProt P42345); assay: mTOR FRB domain ligand binding – biophysical, NMR (AID 1648); conditions: NMR binding to FRB domain, chemical shift
Sequence (P42345 2015-2114): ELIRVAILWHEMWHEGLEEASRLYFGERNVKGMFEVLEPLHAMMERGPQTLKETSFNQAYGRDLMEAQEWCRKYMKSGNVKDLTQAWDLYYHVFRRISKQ

Compound | Kd
O=c1/c(=C/c2cccs2)sc2ncnn12 | > 4 mM (inactive)
Nc1ccc(-c2cnco2)cc1 | > 4 mM (inactive)
CN=C(c1ccc([N+](=O)[O-])cc1)N(C)C | > 4 mM (inactive)
O=P1(O)c2ccccc2Nc2ccccc21 | > 4 mM (inactive)
Cc1nc2ccccc2c(=O)n1NC(=O)C1CCCCC1 | > 4 mM (inactive)
Cc1ccc(C(=O)N2CCC(C(N)=O)CC2)cc1C | > 4 mM (inactive)
O=C(CSc1ncn[nH]1)c1ccc2c(c1)OCCO2 | > 4 mM (inactive)
CC(=O)NC1=C(N(C)C)C(=O)c2ccccc2C1=O | > 4 mM (inactive)
CC1=NCCc2c1[nH]c1cc(O)ccc21 | > 4 mM (inactive)
O=c1ccc2ccc(O)cc2o1 | > 4 mM (inactive)
COc1cc(/C=C/C(=O)O)cc(OC)c1OC | > 4 mM (inactive)
Cc1nc2nc(COc3ccccc3)nn2c(C)c1Cl | > 4 mM (inactive)
CCOc1ccccc1C(=O)NC1=NCCS1 | > 4 mM (inactive)
O=c1c2c(nc3nc(COc4ccccc4)[nH]n13)CCC2 | > 4 mM (inactive)
Cn1ccnc1SCc1cc(=O)[nH]c2ccccc12 | > 4 mM (inactive)
CC(C)(C)CC(=O)NC1=NCCS1 | > 4 mM (inactive)
O=C(NCc1ccccc1F)c1cccs1 | > 4 mM (inactive)
C=CCn1c(-c2ccc(O)cc2)n[nH]c1=S | > 4 mM (inactive)
CC(=O)Nc1ccc2c(c1)CCC2=O | > 4 mM (inactive)
O=C1CCC(=O)N1c1ccc(F)cc1 | > 4 mM (inactive)
Cc1noc(-c2ccccc2)c1C(=O)O | > 4 mM (inactive)
O=C(O)Cn1nc(-c2ccccc2)c2ccccc2c1=O | > 4 mM (inactive)
NS(=O)(=O)c1ccc(N=Cc2ccc[nH]2)cc1 | > 4 mM (inactive)
COc1ccc2c3c1O[C@H]1C[C@@H](O)C=C[C@@]31CCN(C)C2 | > 4 mM (inactive)

Compound | Kd
Cc1cc(=O)n2[nH]cnc2n1 | > 4 mM (inactive)
O=C(Nc1ncccn1)c1cccc(F)c1 | > 4 mM (inactive)
CNC(=O)COc1cccc2c1CCNC2=O | > 4 mM (inactive)
CN1C(=O)C2CC=C(Cl)CC2C1=O (stereo not drawn) | > 4 mM (inactive)
O=C(O)CSc1cccc2cccnc12 | > 4 mM (inactive)
COc1ccc2c(c1OC)C(=O)O[C@H]2[C@H]1c2cc3c(cc2CCN1C)OCO3 | > 4 mM (inactive)
C=C1C2CC[C@@]3(C)[C@H](c4ccoc4)OC(=O)C[C@]13O[C@H]1CC(O)C(C)(C)C(CC(=O)OC)[C@@]21C (stereo partly drawn) | > 4 mM (inactive)
O=C(CN1CCOCC1)Nc1cccc(Br)c1 | > 4 mM (inactive)
Nc1ccc(CN2CCS(=O)(=O)CC2)cc1 | > 4 mM (inactive)
CCOc1ccc(Cl)cc1S(=O)(=O)N1CCCC1 | > 4 mM (inactive)
CSc1ccc(S(=O)(=O)N2CCCC2)cc1 | > 4 mM (inactive)
N#CC(O[C@@H]1O[C@H](CO[C@@H]2O[C@H](CO)[C@@H](O)[C@H](O)[C@H]2O)[C@@H](O)[C@H](O)[C@H]1O)c1ccccc1 (stereo partly drawn) | > 4 mM (inactive)
O=C1C(=O)N(CNc2ncccn2)c2ccccc21 | > 4 mM (inactive)
Nc1c(F)c(F)nc(F)c1F | > 4 mM (inactive)
CCSc1nc2ccccc2[nH]1 | > 4 mM (inactive)
O=C(c1ncc[nH]1)c1ccccc1C(=O)N1CCOCC1 | > 4 mM (inactive)
COc1c(C)c2c(c(O)c1C/C=C(\C)CCC(=O)O)C(=O)OC2 | > 4 mM (inactive)
Cc1ccc(C(=O)N2CCC(C(=O)O)CC2)cc1 | > 4 mM (inactive)
O=C(O)c1ccc2occc2c1 | > 4 mM (inactive)
COC(=O)c1ccc(/C=C2/NC(=S)NC2=O)cc1 | > 4 mM (inactive)
CCn1c(-c2c[nH]c3ccccc23)n[nH]c1=S | > 4 mM (inactive)
CC(=O)N=c1cccc(NC(C)=O)n1O | > 4 mM (inactive)
CC(=O)O[C@H]1C(=O)[C@@]2(C)C([C@H](OC(=O)c3ccccc3)[C@]3(O)C[C@H](OC(=O)[C@H](O)[C@@H](NC(=O)c4ccccc4)c4ccccc4)C(C)=C1C3(C)C)[C@]1(OC(C)=O)CO[C@@H]1C[C@@H]2O (stereo partly drawn) | > 4 mM (inactive)
Cc1nn2c(nc1=O)SCC2(O)c1ccccc1 (stereo not drawn) | > 4 mM (inactive)

Compound | Kd
CC(=O)Nc1ccccc1OCC(N)=O | > 4 mM (inactive)
COc1ccc(-c2oc3c(CC=C(C)C)c(O[C@@H]4O[C@H](CO)[C@@H](O)[C@H](O)[C@H]4O)cc(O)c3c(=O)c2O[C@@H]2O[C@@H](C)[C@H](O)[C@@H](O)[C@H]2O)cc1 | > 4 mM (inactive)
Cc1cc(C(=O)Nc2ccc3c(c2)OCCO3)c(C)o1 | > 4 mM (inactive)
O=c1ccn(Cc2ccccc2)c(=O)n1Cc1ccccc1 | > 4 mM (inactive)
CC(=O)O[C@@H]1CC2C(C)(C)C(=O)C=C[C@]2(C)C2CC[C@]3(C)C(=CC(=O)O[C@H]3c3ccoc3)[C@@]21C (stereo partly drawn) | > 4 mM (inactive)
Cc1cc(C(=O)NC(C)c2ccncc2)cs1 (stereo not drawn) | > 4 mM (inactive)
CN1CCC(NC(=O)C2CCCO2)CC1 (stereo not drawn) | > 4 mM (inactive)
CC(C)(C)c1cc(N)n[nH]1 | > 4 mM (inactive)
COc1ccccc1CNc1nc2nc(C)cc(=O)n2[nH]1 | > 4 mM (inactive)
C=C1CCC(=O)C(C)CCC2C1CC2(C)C (stereo not drawn) | > 4 mM (inactive)
CSc1ccccc1C(=O)N1CCOCC1 | > 4 mM (inactive)
Clc1ccc(-n2ccnc2)nn1 | > 4 mM (inactive)
C[C@@H]1CCC2[C@](C)(CO)[C@@H](O)CC[C@]2(C)[C@@]12CC[C@@](CO)(CCO)O2 (stereo partly drawn) | > 4 mM (inactive)
CC(C)C(=O)NCC(c1ccco1)N1CCOCC1 (stereo not drawn) | > 4 mM (inactive)
CC(=O)Nc1cccc(N(C)S(C)(=O)=O)c1 | > 4 mM (inactive)
Oc1cccc2[nH]ccc12 | > 4 mM (inactive)
CCP(=O)(CC)c1cccc(C)c1 | > 4 mM (inactive)
CC(C)CCCC(C)[C@H]1CCC2C3CC=C4CC(=O)CC[C@]4(C)C3CC[C@@]21C (stereo partly drawn) | > 4 mM (inactive)
CSc1nc2nc(C)cc(=O)n2[nH]1 | > 4 mM (inactive)
Cn1nccc1N | > 4 mM (inactive)
S=C(Nc1ccccc1)Nc1nncs1 | > 4 mM (inactive)
NCc1ccc(-n2cccc2)cc1 | > 4 mM (inactive)
COC(=O)c1ccc2nccnc2c1 | > 4 mM (inactive)
Cc1[nH]c2ccccc2c1CN(C)C | > 4 mM (inactive)

Compound | Kd
O=C(O)c1ccc(CN2CCOCC2)cc1 | > 4 mM (inactive)
CCN1C(=O)N(CO)C2C1N(C)C(=O)N2C (stereo not drawn) | > 4 mM (inactive)
COc1cc2occc2c2oc(=O)ccc12 | > 4 mM (inactive)
c1ccc(CCc2nc(-c3cccnc3)no2)cc1 | > 4 mM (inactive)
COC(=O)c1ccccc1C | > 4 mM (inactive)
CC(C)(CO)NC(=O)c1ccccc1F | > 4 mM (inactive)
O=C(O)CCn1cncn1 | > 4 mM (inactive)
c1cnc(N2CCSCC2)nc1 | > 4 mM (inactive)
Cc1ccccc1N1CCN(C(=O)C2CCCCC2)CC1 | > 4 mM (inactive)
COc1cccc(O)c1O | > 4 mM (inactive)
Cc1cc(O)c2c(c1)C(=O)c1cccc(O)c1C2=O | > 4 mM (inactive)
N#Cc1cnn(-c2ccc(Cl)cc2)c1N | > 4 mM (inactive)
Nc1ccc2[nH]ccc2c1 | > 4 mM (inactive)
COc1ccc(-c2coc3cc(OC)cc(OC)c3c2=O)cc1 | > 4 mM (inactive)
OCc1ccncc1 | > 4 mM (inactive)
CC(C)CCCC1(C)C=Cc2c(O)c3c(c(CCC(C)C)c2O1)OC12C(CC4CC1C(C)(C)OC2(CCC(C)C(=O)O)C4O)C3=O (stereo not drawn) | > 4 mM (inactive)
C#CCCCCCCCCCCCc1ccco1 | > 4 mM (inactive)
Cc1nnc(SCc2cccs2)[nH]c1=O | > 4 mM (inactive)
O=NN1C(=O)c2ccccc2C1=O | > 4 mM (inactive)
CC(=O)Nc1ccc(C)cc1NC(C)=O | > 4 mM (inactive)
NC(=NCCC[C@H](N)C(=O)O)NC(CCC(=O)O)C(=O)O (stereo partly drawn) | > 4 mM (inactive)
CCN1CCc2c(sc(N)c2C#N)C1 | > 4 mM (inactive)
CC1(C)N=C2C(=[N+]1[O-])CCC/C2=N\O | > 4 mM (inactive)
Cc1cc(F)c(F)c(C(=O)NC2CC2)c1Cl | > 4 mM (inactive)

Compound | Kd
OCc1ccccc1O[C@@H]1O[C@H](CO)[C@@H](O)[C@H](O)[C@H]1O | > 4 mM (inactive)
CCN1CCC(NC2CCC(O)CC2)CC1 (stereo not drawn) | > 4 mM (inactive)
O=C(c1nc2ccccc2s1)N1CCSCC1 | > 4 mM (inactive)
COc1ccc(-c2coc3c(O)c(OC)ccc3c2=O)cc1 | > 4 mM (inactive)
Nc1ccc(S(=O)(=O)Nc2nccs2)cc1 | > 4 mM (inactive)
C[C@H]1C[C@@H](O)[C@]2(O)[C@@]13CC(=O)OC[C@@]2(C)[C@](C)(O)C(=O)C3 | > 4 mM (inactive)
CCC(=O)NC(=S)Nc1ccc(C(N)=O)cc1 | > 4 mM (inactive)
O=[N+]([O-])c1cccc(CN2CCC(O)CC2)c1 | > 4 mM (inactive)
Cc1nc(-c2cc(C(=O)O)no2)cs1 | > 4 mM (inactive)
O=C1CNCc2[nH]c3ccccc3c2N1c1ccccc1 | > 4 mM (inactive)
O=c1cc(O)nc(SCc2ccccc2)[nH]1 | > 4 mM (inactive)
COc1cccc(N2CCN(C(=O)c3cccnc3)CC2)c1 | > 4 mM (inactive)
Cc1onc(-c2ccccc2)c1C(=O)O | > 4 mM (inactive)
O=C(c1cccc(C(F)(F)F)c1)N1CCCC1 | > 4 mM (inactive)
COC1C=CC23c4cc5c(cc4CN(CC2O)[C@@H]3C1)OCO5 (stereo partly drawn) | > 4 mM (inactive)
COC(=O)c1cccc(C(F)(F)F)c1 | > 4 mM (inactive)
COc1ccc2cc3[n+](cc2c1OC)CCc1cc2c(cc1-3)OCO2 | > 4 mM (inactive)
COc1cc(C)c(Cl)cc1S(=O)(=O)N(C)C | > 4 mM (inactive)
CN(c1ccc(C(=O)N2CCCCC2)cc1)S(C)(=O)=O | > 4 mM (inactive)
CN1CCCC1C(=O)O (stereo not drawn) | > 4 mM (inactive)
CC(=O)c1cccc(NC(=O)NN2CCOCC2)c1 | > 4 mM (inactive)
O=c1[nH]c(O)c(C=NC2CC2)c(=O)[nH]1 | > 4 mM (inactive)
